Measurements: article PMC3767334, “Interaction of 5′-Guanosine Monophosphate with Organotin(IV) Moieties: Synthesis, Structural Characterization, and Anti-Inflammatory Activity” (ISRN Organic Chemistry, 2012)

Experiments:
paw edema = assay: Anti-inflammatory activity (% inhibition in paw edema); format: in vivo; conditions: dose 40 mg/kg p.o.; albino rats
Text: (§1) Solvents were dried and distilled before use. Dimethyltin(IV) dichloride di-n-butyltin(IV) dichloride, diphenyltin(IV) dichloride, trimethyltin(IV) chloride, tri-i-propyltin(IV) chloride, tri-n-butyltin(IV) chloride, triphenyltin(IV) chloride (E. Merck), di-n-octyltin(IV) oxide (Aldrich), and disodium salt of 5′-guanosine monophosphate (Na2(5′-GMP) (Sigma) were used as received. The elemental analysis, namely, melting points, carbon, hydrogen, nitrogen, and tin of the synthesized compounds was determined on the same instruments as reported earlier. Infrared and far-infrared spectra were recorded on a Perkin-Elmer 1600 series FT IR spectrophotometer in the range 4000–400 cm^−1 from KBr discs and 600–200 cm^−1 from CsI discs. ^1H and ^13C spectra were recorded on a Bruker DRX 300 (300 MHz FT NMR) spectrometer at the Central Drug Research Institute, Lucknow, India, using CD3OD as solvent and TMS as the internal standard. ^119Sn NMR spectra were recorded on a Bruker DRX 500 (500 MHz FT NMR) spectrometer at the Institute Instrumentation Centre, IIT, Roorkee, India, using DMSO-d6/CD3OD as solvent and TMS as the internal standard. ^119Sn Mössbauer spectra were recorded on Mössbauer spectrometer model MS-900 according to the procedure reported previously at the Department of Chemistry and Physics, University of The District of Columbia, Washington, DC, USA [21, 22]. Toxicity (LD50: average lethal dose at 50% survival) and anti-inflammatory activity of the studied derivatives were determined according to the procedures reported earlier.

[1] = Solubility in organic solvents (observation); format: physicochemical; conditions: for Solubility in DMSO-d6/CDCl3/CD3OD: NMR solvents DMSO-d6/CDCl3/CD3OD
Text: All of the synthesized compounds are obtained as white or cream solid in 65–81% yield and stable towards air and moisture. They are insoluble in common organic solvents but sparingly soluble in DMSO. They decomposed at high temperature instead of melting, which indicates their polymeric nature. […] In the entire studied derivatives one molecule of water is also involved.
The chemical shifts of various magnetically nonequivalent carbons of (5′-GMP)^2− have been assigned in the studied derivatives. The C-5′ resonances in organotin(IV) derivatives of (5′-GMP)^2− are shifted towards downfield upon complexation as compared with that of ligand, which indicate the involvement of phosphate group (PO3)^2− in bonding with tin. While all other carbon shifts remains almost unchanged, the ^13C chemical shifts of alkyl and phenyl groups attached to tin are also observed in the expected regions which are consistent with previously reported values. The characteristic resonances in the ^119Sn NMR spectra of some of the studied derivatives, recorded in dimethylsulfoxide-d 6, are also presented in Table 2. […] The ^119Sn chemical shifts in iso-Pr3Sn(IV), Ph2Sn(IV), and Ph3Sn(IV) derivatives of (5′-GMP)^2− are observed at δ −256, −225, and −226 ppm, which are characteristic of the five-coordinated organotin(IV) derivatives.

albino rats = format: in vivo; conditions: p.o.
Text: as §1

## CCCCC1C(=O)N(c2ccccc2)N(c2ccccc2)C1=O [Phenyl butazone, reference compound]
Paw edema
  Anti-inflammatory activity % inhibition (paw edema): 34.56%

## [(Me3Sn)2(5′-GMP)·H2O]n
[1]
  Solubility in DMSO-d6: poor solubility
  Solubility in DMSO-d6/CDCl3/CD3OD: extremely low solubility

## [(Ph3Sn)2(5′-GMP)·H2O]n
Paw edema
  Anti-inflammatory activity % inhibition (paw edema): 20.63%
Albino rats
  Toxicity LD50: >400 mg/kg

## [(i-Pr3Sn)2(5′-GMP)·H2O]n
Albino rats
  Toxicity LD50: >400 mg/kg

## [(n-Bu3Sn)2(5′-GMP)·H2O]n
Paw edema
  Anti-inflammatory activity % inhibition (paw edema): 17.34%
Albino rats
  Toxicity LD50: >400 mg/kg
[1]
  Solubility in DMSO-d6: poor solubility

## [Me2Sn(5′-GMP)·H2O]n
Paw edema
  Anti-inflammatory activity % inhibition (paw edema): 18.12%
Albino rats
  Toxicity LD50: >400 mg/kg
[1]
  Solubility in DMSO-d6: poor solubility

## [Ph2Sn(5′-GMP)·H2O]n
Paw edema
  Anti-inflammatory activity % inhibition (paw edema): 19.22%
Albino rats
  Toxicity LD50: >400 mg/kg

## [n-Bu2Sn(5′-GMP)·H2O]n
Paw edema
  Anti-inflammatory activity % inhibition (paw edema): 16.32%
Albino rats
  Toxicity LD50: >400 mg/kg
[1]
  Solubility in DMSO-d6: poor solubility
  Solubility in DMSO-d6/CDCl3/CD3OD: extremely low solubility
